Our source for the TGI values is PubChem BioAssay (NCI).

The structures appear in SMILES notation.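 Step 1: Grow cells in 96-well plates. Step 2: Expose to compound for 48 hours at 5 concentrations. Step 3: Interpolate endpoints linearly; if unreached, use highest concentration. Definition used: TGI = concentration required for complete inhibition of growth.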 Some results are limits rather than exact numbers.

Among the test systems are SF-539 CNS; ACHN renal; KM12 colon; A549 NSCLC; SK-MEL-2 melanoma; SK-OV-3 ovarian; 786-0 renal; NCI-H23 lung; HOP-92 NSCLC.
Assay in all cases: NCI anticancer screen, dose series, 48 h

Turning to `CN(C)c1ccc(/C=C/C(=O)C(C)(C)C)cc1Br`, the TGI in the experiment with SF-539 CNS is 71 µM; in the experiment with ACHN renal, greater than 100 µM; in the experiment on KM12 colon it was 56.1 µM; with A549 NSCLC it was greater than 100 µM; with SK-MEL-2 melanoma, 36.7 µM; in the experiment with SK-OV-3 ovarian, greater than 100 µM. In addition, the TGI was 59 µM in the experiment on 786-0 renal and 75.9 µM in the experiment on NCI-H23 lung.

As for `COc1ccc(S(=O)(=O)N/N=C/CN2C(=O)c3ccccc3C2=O)cc1OC`, the TGI with SF-539 CNS, in the experiment with ACHN renal, with KM12 colon, in the experiment with A549 NSCLC, with SK-MEL-2 melanoma and with SK-OV-3 ovarian was greater than 100 µM throughout. Also, the TGI in the experiment on 786-0 renal and with NCI-H23 lung was greater than 100 µM in each case.

Regarding `Cn1ccnc1C(c1nccn1C)C(C)(C)[N+](=O)[O-]`, the TGI in the experiment on SF-539 CNS, in the experiment with ACHN renal, in the experiment on HOP-92 NSCLC, in the experiment with KM12 colon, in the experiment on A549 NSCLC and in the experiment with SK-MEL-2 melanoma was greater than 100 µM throughout. For the same compound, the TGI in the experiment on SK-OV-3 ovarian and with 786-0 renal was greater than 100 µM in each case.

For the compound `C=CCC12CCC(=O)C=C1CCC1(C2)OCCO1` (centres undefined), the TGI with SF-539 CNS, in the experiment with ACHN renal, in the experiment on KM12 colon, with A549 NSCLC, in the experiment with SK-MEL-2 melanoma and with SK-OV-3 ovarian was greater than 100 µM throughout. For the same compound, in the experiment with 786-0 renal, the TGI is greater than 100 µM.

For `COc1ccccc1/C=C1\CCC(CNc2ccc(Cl)cc2)C1=O` (centres undefined), the TGI with SF-539 CNS amounted to 16 µM; with ACHN renal, 14.6 µM; in the experiment with HOP-92 NSCLC, 30.6 µM; in the experiment on KM12 colon, 10 µM; in the experiment on A549 NSCLC it was 17 µM; in the experiment with SK-MEL-2 melanoma it was 26.7 µM. In addition, the TGI was 16.8 µM with SK-OV-3 ovarian, 22.2 µM with 786-0 renal and 20.8 µM in the experiment on NCI-H23 lung.

Take `N#CCCN(CCC#N)c1ccc(/C=C2\N=C(COc3ccc(Cl)cc3Cl)OC2=O)cc1`: the TGI in the experiment on SF-539 CNS, in the experiment with KM12 colon, in the experiment with A549 NSCLC, with SK-MEL-2 melanoma, in the experiment with SK-OV-3 ovarian and in the experiment with 786-0 renal was greater than 100 µM in each case. This compound displayed a TGI in the experiment with NCI-H23 lung greater than 100 µM.

For the compound `CS(=O)(=O)N(CCC#N)c1ccc(/C=N/NC(=O)CC(=O)Nc2cccc(Cl)c2)cc1`, the TGI with SF-539 CNS, with ACHN renal, with KM12 colon, in the experiment on A549 NSCLC, in the experiment with SK-MEL-2 melanoma and in the experiment on SK-OV-3 ovarian was greater than 100 µM each time. Further, the TGI in the experiment with 786-0 renal and in the experiment with NCI-H23 lung was greater than 100 µM each time.

Consider `CNS(=O)(=O)NN(C)S(=O)(=O)c1ccc(Cl)cc1`, for which the TGI in the experiment with SF-539 CNS, in the experiment on ACHN renal, in the experiment on KM12 colon, with A549 NSCLC, in the experiment with SK-MEL-2 melanoma and in the experiment on 786-0 renal was greater than 100 µM throughout. In addition, in the experiment with NCI-H23 lung, the TGI is greater than 100 µM.

Take `CS(=O)(=O)OCCN1CCN(C(=O)c2cccc3c(Nc4ccc(S(N)(=O)=O)cc4)c4ccccc4nc23)CC1`: the TGI in the experiment with SF-539 CNS, in the experiment with ACHN renal, in the experiment with HOP-92 NSCLC, in the experiment on KM12 colon, in the experiment with A549 NSCLC and with SK-MEL-2 melanoma was greater than 100 µM throughout. Besides, the TGI in the experiment with SK-OV-3 ovarian, in the experiment with 786-0 renal and in the experiment with NCI-H23 lung was greater than 100 µM each time.

Take `CCN(CC)c1ccc(N=C2C=CC(=O)c3ncccc32)c(C)c1`: the TGI in the experiment with SF-539 CNS was 19.4 µM; in the experiment on ACHN renal it was 12.7 µM; with HOP-92 NSCLC it was 19.7 µM; in the experiment on KM12 colon it was 27.1 µM; with A549 NSCLC it was 26.1 µM; with SK-MEL-2 melanoma, 29 µM. For the same compound, the TGI amounted to 34.3 µM in the experiment on SK-OV-3 ovarian, 16.6 µM in the experiment with 786-0 renal and 18.6 µM in the experiment with NCI-H23 lung.

As for `Oc1ccc2occ3c2c1CCC3`, the TGI is greater than 100 µM in the experiment with SF-539 CNS; greater than 100 µM in the experiment on ACHN renal; 80.1 µM in the experiment on HOP-92 NSCLC; greater than 100 µM in the experiment on A549 NSCLC; greater than 100 µM in the experiment on SK-OV-3 ovarian; greater than 100 µM with 786-0 renal. The TGI in the experiment with NCI-H23 lung is greater than 100 µM.

For the compound `Cn1cc(NC(=O)c2cc(NC(=O)Nc3cc(C(=O)Nc4cc(C(=O)NCCC(=N)N)n(C)c4)n(C)c3)cn2C)cc1C(=O)NCCC(=N)N`, the TGI was 35.2 µM in the experiment on SF-539 CNS; 57.9 µM in the experiment with ACHN renal; greater than 100 µM with HOP-92 NSCLC; 36.8 µM in the experiment with KM12 colon; 83.4 µM in the experiment with A549 NSCLC; greater than 100 µM in the experiment with SK-OV-3 ovarian. The TGI in the experiment on 786-0 renal was 38.1 µM; in the experiment on NCI-H23 lung it was greater than 100 µM.

For the compound `CCNc1c(C(=O)N(CC)CC)c(=O)[nH]c2ncccc12`, the TGI in the experiment with SF-539 CNS, with ACHN renal, in the experiment on HOP-92 NSCLC, with KM12 colon, in the experiment on A549 NSCLC and with SK-MEL-2 melanoma was greater than 100 µM throughout. Moreover, the TGI in the experiment with SK-OV-3 ovarian, in the experiment with 786-0 renal and with NCI-H23 lung was greater than 100 µM each time.

Regarding `CC1CCC2(NC1)OC1CC3[C@@H]4CC=C5C=CCC[C@]5(C)C4CC[C@]3(C)C1C2C` (some centres undefined), the TGI in the experiment on SF-539 CNS stood at 43.2 µM; in the experiment with ACHN renal, 44.6 µM; with HOP-92 NSCLC, 61.8 µM; in the experiment on KM12 colon, 44 µM; in the experiment on A549 NSCLC, 58.5 µM; in the experiment on SK-MEL-2 melanoma, 35.2 µM. In addition, the TGI in the experiment on SK-OV-3 ovarian is 68.4 µM; with 786-0 renal, 35.5 µM; with NCI-H23 lung, greater than 100 µM.

For the compound `CC(C)COC(=O)N1N=NC2C3OC(CC3=O)C21` (centres undefined), the TGI with SF-539 CNS, with ACHN renal, in the experiment on HOP-92 NSCLC, in the experiment on KM12 colon, in the experiment with SK-MEL-2 melanoma and with SK-OV-3 ovarian was greater than 100 µM in each case. Moreover, the TGI with 786-0 renal and in the experiment on NCI-H23 lung was greater than 100 µM in each case.

For `CC(=O)O[C@H]1CC[C@@]2(C)C(CC[C@]3(C)C2CC[C@]2(C)Oc4c(C)cc(O)cc4C[C@@H]23)C1(C)C` (some centres undefined), the TGI in the experiment with ACHN renal came out at 17.5 µM; in the experiment on HOP-92 NSCLC it was 18.2 µM; in the experiment on KM12 colon it was 22.6 µM; in the experiment with A549 NSCLC, 21.2 µM; in the experiment with SK-MEL-2 melanoma, 21.4 µM; in the experiment with SK-OV-3 ovarian, 22.2 µM. Moreover, the TGI with 786-0 renal was 4.44 µM; in the experiment with NCI-H23 lung, 21.6 µM.
